Read-outs that look alike come from different tables or passages of the source. *1 amine or outer side, *2 acyl side, *3 side chain or, on linkers, in order; H or OH if unused. Where a SMILES comes first, the peptide text is derived from it. Bridges are numbered along the chain shown (N, C = ends). [ ]: non-standard residue; d: D form. The star is where a group is joined. ξ: configuration not given here. Ala(piperidin-4-yl) = O=C([C@H](CC1CCN([*:3])CC1)N[*:1])[*:2]; DOTA = O=C(O)CN1CCN(CC(=O)O)CCN(CC(=O)*)CCN(CC(=O)O)CC1; X2 = O=C(Cc1ccc(I)cc1)NCCOCCOCCOCCOCCOCCOCCOCCOCC(=O)*; 2Nal = N[C@@H](Cc1ccc2ccccc2c1)C(=O)O; NMetBuAla = CN[C@@H](CC(C)(C)C)C(=O)O; Thr(3ξ) = CC(O)[C@H](N)C(=O)O; Chg = N[C@H](C(=O)O)C1CCCCC1; NMeNle = CCCC[C@H](NC)C(=O)O; Tle = CC(C)(C)[C@H](N)C(=O)O; αMeP = C[C@@]1(C(=O)O)CCCN1; CH2 = C([*:1])[*:2]
Key:
DLL3 = molecular target: T1, DLL3 (Homo sapiens, UniProt Q9NYJ7); assay: SPR KD, biotinylated human DLL3 on streptavidin chip (Table 8); parameters: biotin (biotinylated)
T1 sequence (Q9NYJ7 27-618): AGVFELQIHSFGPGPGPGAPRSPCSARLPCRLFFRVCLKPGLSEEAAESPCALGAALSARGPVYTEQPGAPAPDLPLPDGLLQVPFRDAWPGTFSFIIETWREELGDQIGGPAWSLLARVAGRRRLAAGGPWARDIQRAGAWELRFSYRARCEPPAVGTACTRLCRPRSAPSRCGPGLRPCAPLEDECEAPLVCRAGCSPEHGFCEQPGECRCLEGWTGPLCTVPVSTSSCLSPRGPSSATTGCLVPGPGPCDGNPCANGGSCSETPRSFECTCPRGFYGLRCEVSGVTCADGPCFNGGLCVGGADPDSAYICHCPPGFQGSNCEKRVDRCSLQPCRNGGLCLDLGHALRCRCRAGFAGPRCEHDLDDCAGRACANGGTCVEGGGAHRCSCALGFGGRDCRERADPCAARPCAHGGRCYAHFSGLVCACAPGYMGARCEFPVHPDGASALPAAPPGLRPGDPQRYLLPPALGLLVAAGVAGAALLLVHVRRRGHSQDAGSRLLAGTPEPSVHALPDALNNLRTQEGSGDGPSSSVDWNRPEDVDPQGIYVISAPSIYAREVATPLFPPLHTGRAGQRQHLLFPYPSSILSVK
Source text: Biotinylated target ligand human DLL3 was immobilized on a streptavidin sensor chip. A reference surface was set up for nonspecific binding and refractive index changes. […] Sensorgram curves were fitted with 1:1 binding model, and affinity and kinetic parameters were obtained using Biacore Insight evaluation 4.0. software.

SHP-77 cells [1] = assay: Cell binding (total uptake) of [177Lu]Lu-labeled peptide, SHP-77 cells; format: cell-based; conditions: 1 h, 37° C.
Description: (§1) [^177Lu]LuCl3 was received from venders in HCl solution. For every mCi of [^177Lu]LuCl3 added to the reaction vial (1.5 mL Eppendorf vial), ammonium acetate buffer (0.2 M, pH 4.9, 100 μL, containing 1% w/v ascorbic acid and 6% v/v ethanol) and peptide conjugate (1 nmol; also referred to herein as “chelator-peptides”) was added. The pH of the solution was determined to be approximately 5 by using pH strips. The reaction vial was incubated at 80° C., 700 RPM for 17-20 minutes. A sample from the reaction was analyzed by RP-HPLC using an Agilent Infinity II 1260 HPLC to determine reaction completion and radiochemical purity of [^177Lu]Lu-chelator-peptides. HPLC conditions: Waters XBridge BEH C18 Column, 130A, 3.5 μm, 4.6 mm×250 mm; mobile phase: Solvent A=water (with 0.1% formic acid), solvent B=acetonitrile (with 0.1% formic acid). Gradients: 25-45% B in 10 minutes, 45-65% B in 12 minutes, 65-90% in 6 minutes at a flow rate of 0.5 mL/minutes Required amounts of the product was formulated in 1% PBSA for cell studies.
(§2) The study was conducted using SHP-77, CT26.WT, CT26.DLL3, and HEK293.DLL3 cells (Table 9)
(§3) Adherent cell studies: The cells were cultured in appropriate culture media (20 mL) in tissue culture treated T150 flasks at 37° C. and 5% C02. Adherent cells were detached (60-70% confluent) using 5 mL Versene at 37° C. for 3 minutes. After confirming the viability using countess and count of detached cells using Trypan blue, the cells were centrifuged at 4° C. for 5 minutes (1,000 rpm). The cell pellet obtained was washed once with PBS and resuspended in 1% PBSA to obtain the desired cell concentration (5-25 million cells/mL).
(§4) Suspension cell studies: The cells were cultured in appropriate culture media (20 mL) in tissue culture treated T150 flasks at 37° C. and 5% CO2. After confirming the viability and count of detached cells using Trypan blue, the cells were centrifuged at 4° C. for 5 minutes (1,000 rpm). The cell pellet obtained was washed once with PBS and resuspended in 1% PBSA to obtain the desired cell concentration (5-25 million cells/mL).
(§5) Cell numbers used for the assay were in the range of 5 million cells/condition-25 million cells/condition.
(§6) Total uptake: Cells were incubated with 300 μL (0.8 μCi) of the incubation buffer (containing radiolabeled peptide [^177Lu]Lu-test peptide) for 1 hour at 37° C. (Table 10). Post incubation, the cells were pelleted and washed 2 times using cold PBS+1% BSA. The supernatant and washes were combined and counted together as “unbound fraction” in a gamma counter. The cells were then resuspended in 300 μL of 1% PBS+1% BSA and counted in the gamma counter as “bound fraction”.
(§7) In these Tables, “A” represents % s ≤25; “B” represents 25 <% ≤50; “C” represents % >50.

[2] = tested on: nude mice bearing SHP-77 tumors; assay: Ex vivo biodistribution of radiolabeled peptides (% IA/g) in nude mice bearing SHP-77 tumors; conditions: [177Lu]Lu labelling, 24 hours post-injection, intravenous
Description: Mice were intravenously injected (via the lateral tail vein) with a bolus dose of the radiolabeled peptides for ex vivo biodistribution studies when tumor volumes were in range of 200-400 mm^3 for xenograft mice and when age of the mice was 5-7 weeks for tumor naïve mice studies. To assess the amount of radionuclide injected into individual mice the syringe was assayed in a dose calibrator before and after injection for [^177Lu]Lu-peptide, then the injected dose was determined from the weight difference and concentration of the radionuclide solution.
Mice were euthanized at pre-determined time points and selected tissues were resected and collected into pre-weighed tubes. The tubes were then reweighed post resection, the difference giving the weight of each tissue. Radioactivity in each tissue was measured using a gamma counter. Counts were decay corrected to the time of injection and percentage of injected activity per gram (% IA/g) was calculated for each tissue based on the injected activity into each individual mouse. Injected activity was converted to counts based on the sensitivity of the gamma counter. The counts in tissue were then converted to the percentage of injected activity and this was divided by the mass of tissue to give % IA/g.

SHP-77 cells [3] = assay: Internalization of [177Lu]Lu-labeled peptide, SHP-77 cells; format: cell-based; conditions: 1 h, 37° C.
Description: as §1, §2, §3, §4, §5
(§8) Internalization: The resuspended cells in 300 μL of 1% PBSA and counted in the gamma counter as “bound fraction” were collected in 1.5 mL Eppendorf tube and pelleted. The pelleted cells were incubated with 300 μL of 50 mM Glycine pH=2.5 for 3 minutes and then pelleted discarding the supernatant. This process was repeated one more time. The pelleted cells were washed with 300 μL of cold 1% PBSA and then resuspended in 300 μl 0.3M NaOH. This was counted in the gamma counter as “internalized fraction”.
as §7

CT26.DLL3 cells [4] = assay: Internalization of [177Lu]Lu-labeled peptide, CT26.DLL3 cells; format: cell-based; conditions: 1 h, 37° C.
Description: as §1, §2, §3, §5, §8, §7

CT26.DLL3 cells [5] = assay: Cell binding (total uptake) of [177Lu]Lu-labeled peptide, CT26.DLL3 cells; format: cell-based; conditions: 1 h, 37° C.
Description: as §1, §2, §3, §5, §6, §7

[6] = biotinylated human DLL3 on streptavidin sensor chip, 25° C., 1:1 binding model; read-out: SPR KD

Compound	Kd (DLL3; [6]) [nM]	% Binding (SHP-77 cells [1])	kidney uptake (% IA/g) [2]	tumor uptake (% IA/g) [2]	% Internalization (out of bound fraction) (SHP-77 cells [3])	% Internalization (out of bound fraction) (CT26.DLL3 cells [4])	% Binding (CT26.DLL3 cells [5])	Kd (DLL3; read-out: SPR KD; biotinylated human DLL3 on streptavidin sensor chip, 25° C., 1:1 binding model) [nM]
CC(=O)N[C@@H](Cc1c[nH]c2ccccc12)C(=O)N[C@H](C(=O)N(C)[C@@H](CC(C)(C)C)C(=O)N[C@H]1CSCSC[C@@H](C(=O)N[C@@H](Cc2c[nH]c3ccccc23)C(=O)N2CCC[C@@]2(C)C(N)=O)NC(=O)[C@H](CC(=O)O)NC(=O)[C@H](CCCCNC(=O)CN2CCN(CC(=O)O)CCN(CC(=O)O)CCN(CC(=O)O)CC2)NC(=O)[C@H](Cc2ccc3ccccc3c2)NC(=O)[C@H](CC(N)=O)NC(=O)[C@H](CC2CCNCC2)NC1=O)[C@@H](C)O [compound 236, Ac-W-T-(NMe-tBuAla)-C(1)-[3-(4-piperidinyl)-Ala]-N-(2Nal)-Lys(DOTA)-D-C(1)-W-(aMe-P)-CONH2] (Ac-WT[NMetBuAla]C[Ala(piperidin-4-yl)]N[2Nal]K(DOTA)DCW[αMeP]-NH2; linker 4-10 via CH2)	< 1	C (% >50)	C (“C” represents 0 < % IA/g ≤ 10 in)	B (“B” represents % IA/g > 5 in tumor)	C (% >50)			
CCCC[C@@H](C(=O)N[C@H]1CSSC[C@@H](C(=O)N[C@@H](Cc2c[nH]c3ccccc23)C(=O)N2CCC[C@H]2C(N)=O)NC(=O)[C@H](CC(=O)O)NC(=O)[C@H](CCCCNC(=O)CN2CCN(CC(=O)O)CCN(CC(=O)O)CCN(CC(=O)O)CC2)NC(=O)[C@H](Cc2ccc3ccccc3c2)NC(=O)[C@H](CC(N)=O)NC(=O)[C@H](CC2CCNCC2)NC1=O)N(C)C(=O)[C@@H](NC(=O)[C@H](Cc1c[nH]c2ccccc12)NC(C)=O)[C@@H](C)O [compound 300, Ac-W-T-(NMe-Nle)-C(3)-[3-(4-piperidinyl)-Ala]-N-(2Nal)-Lys(DOTA)-D-C(3)-W-P-CONH2] (Ac-WT[NMeNle]C[Ala(piperidin-4-yl)]N[2Nal]K(DOTA)DCWP-NH2; disulfide 4-10)	< 1		C (“C” represents 0 < % IA/g ≤ 10 in)	A (“A” represents 0 < % IA/g ≤ 5 in tumor)		B (25 <% ≤50)	B (25 <% ≤50)	
CC(=O)N[C@@H](Cc1c[nH]c2ccccc12)C(=O)N[C@H](C(=O)N[C@H](C(=O)N[C@H]1CSSC[C@@H](C(=O)N[C@@H](Cc2c[nH]c3ccccc23)C(=O)N2CCC[C@H]2C(N)=O)NC(=O)[C@H](CC(=O)O)NC(=O)[C@H](CCCCNC(=O)CN2CCN(CC(=O)O)CCN(CC(=O)O)CCN(CC(=O)O)CC2)NC(=O)[C@H](Cc2ccc3ccccc3c2)NC(=O)[C@H](CC(N)=O)NC(=O)[C@H](CC2CCNCC2)NC1=O)C(C)(C)C)[C@@H](C)O [compound 301, Ac-W-T-(Tbg)-C(3)-[3-(4-piperidinyl)-Ala]-N-(2Nal)-Lys(DOTA)-D-C(3)-W-P-CONH2] (Ac-WT[Tle]C[Ala(piperidin-4-yl)]N[2Nal]K(DOTA)DCWP-NH2; disulfide 4-10)	< 1		C (“C” represents 0 < % IA/g ≤ 10 in)	A (“A” represents 0 < % IA/g ≤ 5 in tumor)		B (25 <% ≤50)	B (25 <% ≤50)	
CC(=O)N[C@@H](Cc1c[nH]c2ccccc12)C(=O)N[C@H](C(=O)N[C@H](C(=O)N[C@H]1CSCSC[C@@H](C(=O)N[C@@H](Cc2c[nH]c3ccccc23)C(=O)N2CCC[C@H]2C(=O)N[C@H](CCCCNC(=O)COCCOCCOCCOCCOCCOCCOCCOCCNC(=O)Cc2ccc(I)cc2)C(N)=O)NC(=O)[C@H](CC(=O)O)NC(=O)[C@H](CCCCNC(=O)CN2CCN(CC(=O)O)CCN(CC(=O)O)CCN(CC(=O)O)CC2)NC(=O)[C@H](Cc2ccc3ccccc3c2)NC(=O)[C@H](CC(N)=O)NC(=O)[C@H](CC2CCNCC2)NC1=O)C1CCCCC1)[C@@H](C)O [compound 417] (Ac-WT[Chg]C[Ala(piperidin-4-yl)]N[2Nal]K(DOTA)DCWP[dK](X2)-NH2; linker 4-10 via CH2)			D (“D” represents % IA/g > 10 in kidney)	B (“B” represents % IA/g > 5 in tumor)		B (25 <% ≤50)	B (25 <% ≤50)	< 1
CC(=O)NCCCC[C@@H](NC(=O)[C@@H]1CCCN1C(=O)[C@H](Cc1c[nH]c2ccccc12)NC(=O)[C@@H]1CSCSC[C@H](NC(=O)[C@H](CC(C)(C)C)N(C)C(=O)[C@@H](NC(=O)[C@H](Cc2c[nH]c3ccccc23)NC(C)=O)C(C)O)C(=O)N[C@@H](CC2CCNCC2)C(=O)N[C@@H](CC(N)=O)C(=O)N[C@@H](Cc2ccc3ccccc3c2)C(=O)N[C@@H](CCCCNC(=O)CN2CCN(CC(=O)O)CCN(CC(=O)O)CCN(CC(=O)O)CC2)C(=O)N[C@@H](CC(=O)O)C(=O)N1)C(N)=O (stereo partly drawn) [compound 445, Ac-W-T-(NMe-tBuAla)-C(1)-[3-(4-piperidinyl)-Ala]-N-(2Nal)-Lys(DOTA)-D-C(1)-W-P-[D-Lys(Ac)]-CONH2] (Ac-W[Thr(3ξ)][NMetBuAla]C[Ala(piperidin-4-yl)]N[2Nal]K(DOTA)DCWP[dK](Ac)-NH2; linker 4-10 via CH2)	< 1	C (% >50)	C (“C” represents 0 < % IA/g ≤ 10 in)	B (“B” represents % IA/g > 5 in tumor)	C (% >50)			

— US20250049970A1, “DLL3 TARGETING PEPTIDES AND CONSTRUCTS THEREOF” (MARIANA ONCOLOGY INC., priority 2023, published 2025)
